# Source: ChEMBL document CHEMBL1133767, “Novel nonsubstrate inhibitors of human thymidine phosphorylase, a potential target for tumor-dependent angiogenesis” (J Med Chem, 2000)
# Assays:
# [1] = target: T1, Thymidine phosphorylase (Homo sapiens) (UniProt P19971); experiment: Percent inhibition by compound was measured on Human Thymidine Phosphorylase using 100 uM thymine
# T1 sequence (whole entry): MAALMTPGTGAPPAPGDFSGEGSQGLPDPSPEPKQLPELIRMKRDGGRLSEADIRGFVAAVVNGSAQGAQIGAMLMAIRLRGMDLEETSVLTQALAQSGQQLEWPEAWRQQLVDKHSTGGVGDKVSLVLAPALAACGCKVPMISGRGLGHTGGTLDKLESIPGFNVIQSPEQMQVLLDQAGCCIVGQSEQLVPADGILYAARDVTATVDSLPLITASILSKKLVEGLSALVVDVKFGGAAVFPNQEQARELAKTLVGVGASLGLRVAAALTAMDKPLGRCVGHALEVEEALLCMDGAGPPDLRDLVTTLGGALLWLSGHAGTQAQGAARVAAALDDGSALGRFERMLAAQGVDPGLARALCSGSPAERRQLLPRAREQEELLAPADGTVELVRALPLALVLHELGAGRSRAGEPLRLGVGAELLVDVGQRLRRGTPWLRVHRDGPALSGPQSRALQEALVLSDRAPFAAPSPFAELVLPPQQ
# Thymidine phosphorylase [2] = target: T2, Thymidine phosphorylase (Homo sapiens, UniProt P19971); experiment: Inhibition of anabolic activity of human thymidine phosphorylase
# T2 sequence (P19971 whole entry): T1 sequence (whole entry)
# Thymidine phosphorylase [3] = target: T2, Thymidine phosphorylase; experiment: Inhibition of catabolic activity of human thymidine phosphorylase
inhibition [1],IC50 (Thymidine phosphorylase [2]),IC50 (Thymidine phosphorylase [3]),Compound
41%,,,Nc1cc(O)nc(O)n1
,200 µM,148 µM,Oc1cc(NCCc2ccccc2)nc(O)n1
,,> 200 µM,O=c1cc(NCc2ccccc2)[nH]c(=O)[nH]1
